Results published in US4831051A, “Aromatic derivatives comprising an aminoalkoxy chain, the salts thereof, the process for preparing these derivatives and salts and the application thereof in therapeutics” (Delande S.A., priority 1981, dated 1989).

Assay: acute toxicity estimated on mice (method of MILLER and TAINTER)
Conditions: mouse, in vivo, iv

SMILES	LD50 [mg/kg]
COc1ccc(OC)c(C(O)CCc2ccc(C)cc2)c1OCCN1CCCCC1 (stereo not shown) [compound 6]	31
COc1ccc(OC)c(C(O)CCc2ccc(O)cc2)c1OCCN1CCCCC1 (stereo not shown) [compound 10]	20
COc1c(OCCN2CCCCC2)c(C(O)CCc2ccc(O)cc2)c(OC)c2ccccc12 (stereo not shown) [compound 68, 3-parahydroxyphenyl 1-[3-(2-piperidino)ethoxy 1,4-dimethoxynaphtalenyl-2]propanol-1, hydrated]	12.3
COc1ccc(CCC(O)c2c(OC)ccc(OC)c2OCCN2CCCCC2)cc1 (stereo not shown) [compound 7]	27
COc1ccc(OC)c(C(O)CCc2ccc(O)cc2)c1OCCCN1CCCCC1 (stereo not shown) [compound 11]	22
COc1ccc(OC)c(C(=O)CCc2ccc(O)cc2)c1OCCN1CCCCC1 [compound 2]	14
COc1ccc(OC)c(C(O)CCc2ccccc2O)c1OCCN1CCCCC1 (stereo not shown) [compound 8]	12
CC(C)(Cc1ccc(O)cc1)C(O)c1ccccc1OCCN1CCCCC1 (stereo not shown) [compound 77]	43
COc1ccc(OC)c(C(O)CCc2ccc(O)cc2)c1OCCN1CCCC1 (stereo not shown) [compound 13]	27
COc1cc(OC)c(C(O)CCc2ccc(O)cc2)c(OCCN2CCCCC2)c1OC (stereo not shown) [compound 14]	33
COc1ccc(OC)c(C(O)CCc2ccccc2)c1OCCN1CCCCC1 (stereo not shown) [compound 3]	16
COc1cc(Cl)c(OC)c(OCCN2CCCCC2)c1C(O)CCc1ccc(O)cc1 (stereo not shown) [compound 69]	8.6
COc1cc(OC)c(CCCc2ccc(O)cc2)c(OCCN2CCCCC2)c1 [compound 60]	8.9
COc1ccc(OC)c(C(O)CCc2ccc(Cl)cc2)c1OCCN1CCCCC1 (stereo not shown) [compound 5]	33
CCCN(CCC)CCOc1c(OC)ccc(OC)c1C(O)CCc1ccc(O)cc1 (stereo not shown) [compound 62]	13
CCN(CC)CCOc1c(OC)ccc(OC)c1C(O)CCc1ccc(O)cc1 (stereo not shown) [compound 12]	23
COc1cc(Cl)c(OC)c(C(O)CCc2ccc(O)cc2)c1OCCN1CCCCC1 (stereo not shown) [compound 73]	11.7
COc1ccc(OC)c(C(O)CCc2ccc(F)cc2)c1OCCN1CCCCC1 (stereo not shown) [compound 4]	31
COc1c(OC)c(OC)c(C(O)CCc2ccc(O)cc2)c(OCCN2CCCCC2)c1OC (stereo not shown) [compound 67]	32.5
COc1cc([N+](=O)[O-])c(OC)c(C(O)CCc2ccc(O)cc2)c1OCCN1CCCCC1 (stereo not shown) [compound 74]	18.6
CCN(CC)CCOc1c(OC)c(Cl)cc(OC)c1C(O)CCc1ccc(O)cc1 (stereo not shown) [compound 70]	14
COc1cc(F)c(OC)c(OCCN2CCCCC2)c1C(O)CCc1ccc(O)cc1 (stereo not shown) [compound 72]	3.4
COc1ccc(OC)c(C(O)CCc2cccc(O)c2)c1OCCN1CCCCC1 (stereo not shown) [compound 9]	11
COc1cc(Cl)c(OC)c(OCCN(C(C)C)C(C)C)c1C(O)CCc1ccc(O)cc1 (stereo not shown) [compound 71]	11.5
COc1c2c(c(OC)c(C(O)CCc3ccc(O)cc3)c1OCCN1CCCCC1)OCCO2 (stereo not shown) [compound 66]	15.7
